Assays:
[1] = test system: anxiété induite par un nouvel environnement; experiment: Behavioural study in rats: locomotion and rearing counts under anxiety induced by a new environment; assay type: in vivo, rat; conditions: for profil d'action: conclusion in words from the behavioural study in the rat; for d/r: ratio of slope of déplacements to slope of redressements, specificity of effect on anxiety
From the text: La 1-isopropyl- et la l-isobutyl-3,7-diméthylxan- thine ont fait l'objet d'une étude comportementale chez le rat en fonction de l'anxiété induite par un nouvel environnement. Chez le rat, l'anxiété se manifeste par des redressements de celui-ci sur ses deux pattes postérieures, tandis que ses déplacements sont l'expression de l'activité locomotrice.
• - L'induction d'un état d'anxiété s'effectue par confrontation de rats mâles "naïfs" Sprague-Dawley (Iffa-Credo, France), pesant 260 à 300 g avec un nouvel environnement constitué par des cages en Macrolon ^0 (30 x 25 cm) qui se situent dans une chambre insonorisée et climatisée (22°C et 50 % d'humidité relative). • - La détermination du nombre de redressements et de déplacements a lieu de façon automatique à partir de cellules photo-électriques à infrarouge qui n'émettent des impulsions électriques que pour les mouvements francs de l'animal et pas pour les mouvements statiques comme ceux de la tête et de la queue et ceci pour des raisons de reproductibilité. Ces cellules photo-électriques quadrillent les cages à deux niveaux différents de façon à distinguer les redressements des déplacements. Le nombre de redressements et de déplacements est compté par les deux séries de cellules photo-électriques, mémorisé et restitué sur une imprimante selon un programme préétabli. • - On administre oralement par intubation oesophagienne le composé testé en solution, l'administration de référence étant constituée par 6 ml/kg d'eau distillée, et ceci 30 minutes avant de placer les animaux dans les cages. Le nombre de redressements et de déplacements est déterminé durant les 15 minutes qui suivent la mise en cage, par rapport à l'effet engendré par l'administration de référence.
• - Le tableau I ci-après montre l'évolution des effets des substances testées sur le nombre de déplacements et de redressements en fonction des doses administrées exprimé en pourcentage des déplacements et redressements comptés pour l'administration de référence. [formula] • - A partir des données précédentes, on établit les droites de régression pour les déplacements et les redressements selon la méthode décrite par Saubrié, P.J. Pharmacol, (Paris) 2 (1971) 457-472, l'équation de ces droites de régression correspondant à la moyenne exprimée en % des performances des références en fonction produit par 10 du logarithme des doses (on ne considère que les doses ne diminuant pas l'activité motrice de plus de 75 %). • - La comparaison des pentes des droites de régression correspondant aux déplacements et aux redressements est effectuée en portant sur un système d'axes orthonormés en abscisse (d) la valeur de la pente de la droite des déplacements et en ordonnée (r) celle de la pente des redressements. Ces valeurs mettent en évidence la relation effet-dose pour une substance donnée. • - On détermine également le rapport de la pente des déplacements sur celle des redressements qui permet de juger de la spécificité d'effet d'une substance donnée sur l'anxiété.
La détermination de l'effet d'une substance est donnée par sa localisation par rapport à la droite d = r de pente = 1. Les substances situées sur cette droite ont un effet semblable sur les redressements et les déplacements. Les substances pour lesquelles la valeur absolue de la pente des redressements est significativement supérieure à celle des déplacements ont une action spécifique sur l'anxiété.

[2] = test system: enflement de l'oreille chez la souris; experiment: Delayed cutaneous hypersensitivity test (oxazolone), inhibition of ear swelling; assay type: in vivo; conditions: for % d'inhibition de l'enflement d'oreille: dose 150 mg/kg de poids corporel, ear thickness 24 h after challenge, relative to control
Protocol: L'activité immunosuppressante a été comparée à celle du cyclophosphamide, médicament immunosuppressant connu, comme inhibiteur de l'enflement de l'oreille chez la souris en réponse à l'agression antigénique dans un test d'hypersensibilisation cutanée retard à la dose de 150 mg/kg.
Le test a été conduit par exemple comme décrit par G.L. Asherson et W. Ptak dans Immunology 15, 405 (1968). Des souris ont été immunisées par application cutanée abdominale de 0,1 ml d'une solution à 3 % d'oxazolone. 7 jours après la sensibilisation, les animaux ont été provoqués par peinture de la même solution sur la peau de l'oreille. On a administré simultanément soit le composé ci-dessus soit le cyclophosphamide à une partie des animaux, les animaux restants servant de contrôle. 24 heures après l'agression, on a mesuré l'épaisseur de l'oreille. L'activité immunosuppressante exprimée en % de l'inhibition de l'enflement de l'oreille par rapport au contrôle est indiquée ci-après : […]

SMILES | profil d'action [1] | d/r [1] | % d'inhibition de l'enflement d'oreille [2] | further results
CC(C)Cn1c(=O)c2c(ncn2C)n(C)c1=O [1-isobutyl-3,7-diméthylxanthine] | sédatif non spécifique |  |  | profil d'action ([1]; listed as l-isobutyl-3,7-diméthylxanthine): effet sédatif comparable à celui d'un neuroleptique type
CC(C)n1c(=O)c2c(ncn2C)n(C)c1=O [1-isopropyl-3,7-diméthylxanthine] |  | < 1 |  | 
CNC1=Nc2ccc(Cl)cc2C(c2ccccc2)=[N+]([O-])C1 [chlordiazépoxide, reference compound] |  | < 1 |  | 
O=P1(N(CCCl)CCCl)NCCCO1 (stereo not drawn) [cyclophosphamide, reference compound] |  |  | 73% | 
Cn1cnc2c1c(=O)n(Cn1c(=O)c3c(ncn3C)n(C)c1=O)c(=O)n2C [di(3,7-diméthylxanthin-1-yl)méthane] |  |  | 55% | activité immunosuppressante ([2]; result in words): a montré une activité immunosuppressante
Cn1c(=O)c2[nH]cnc2n(C)c1=O [théophylline, reference compound] | psychostimulante et n'a pas d'effet sur l'anxiété | > 1 |  | 

Source: EP0063827A1, “1-Isopropyl- and 1-isobutyl-3,7-dimethyl xanthine as pharmaceutical preparations” (SOCIETE DES PRODUITS NESTLE S.A., priority 1980, dated 1980)
